Measurements from US20100221763A1, “Specific Acceptors for Transferases to Saccharides and Method for Obtaining and Using Same” (Health Research, Inc, priority 2005, published 2010).
Where “and” joins values, the source holds several entries; their conditions need not be identical. Identical values can stand only once.

Legend:
[1] = biological target: T1, Rat recombinant α2,6(N)ST (Rattus norvegicus, UniProt P13721); assay: Sialyltransferase assay with cloned α2,6(N)ST; type: biochemical; conditions: for Sialyltransferase activity (%) Cloned α2,6(N)ST: Table I, acceptor 7.5 mM, 100% = 43500 CPM (Galβ1,4GlcNAcβ-O—Al); for Cloned Sialyltransferase Activities α2,6(N)ST %: Table III, compound 7.5 mM, 100% = 30440 CPM (Galβ1,4GlcNAcβ1,6(3-O-MeGalβ1,3)GalNAcα-O-Bn)
T1 construct: purchased Calbiochem
T1 sequence (P13721 1-403): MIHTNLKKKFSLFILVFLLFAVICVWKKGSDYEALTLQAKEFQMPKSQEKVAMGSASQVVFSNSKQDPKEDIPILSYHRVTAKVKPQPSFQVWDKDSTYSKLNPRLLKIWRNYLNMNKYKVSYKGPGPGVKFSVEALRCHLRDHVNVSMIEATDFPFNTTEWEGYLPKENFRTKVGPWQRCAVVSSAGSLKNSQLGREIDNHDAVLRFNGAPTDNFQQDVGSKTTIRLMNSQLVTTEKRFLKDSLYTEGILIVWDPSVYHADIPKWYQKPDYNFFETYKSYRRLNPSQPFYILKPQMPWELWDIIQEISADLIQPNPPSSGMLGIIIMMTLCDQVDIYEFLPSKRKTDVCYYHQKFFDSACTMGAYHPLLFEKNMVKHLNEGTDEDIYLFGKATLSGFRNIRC
Protocol: (§1) Rat recombinant α2,3(O)ST, α2,3(N)ST and α2,6(N)ST were purchased from Calbiochem and stored at either −20° C. or −70° C. as recommended by the supplier. […] 10 μl aliquots of the diluted enzymes were used in the assays run in duplicate.
(§2) The incubation mixtures run in duplicate contained 0.1M NaCacodylate buffer pH6.0, the acceptor (typically at 7.5 mM, or as indicated in some experiments), CMP-[9 ^3H] NeuAc (typically 0.2 μci; 20 μci/nmol or as indicated in some experiments) and the enzyme in a total volume of 20 μl. The control incubation mixtures contained everything except the acceptor. Incubation was carried out for 2 h at 37° C. The enzymatic transfer of [9-^3H] NeuAc to a typical acceptor was linear for 2 h and less than 30% CMP-[9-^3H] NeuAc was utilized. Chromatography, using either Dowex-1-Formate, Sep-Pak C18 or Biogel P2, was applied to separate radioactive product from un-reacted [9-^3H] NeuAc as described below.
(§3) The radioactive products from neutral allyl and methyl glycosides as well as non-glycosides were measured by fractionation on Dowex-1-Formate (Bio-Rad: AG-1X8; 200-400 mesh; format form) as follows: The incubation mixture was diluted with 1.0 ml water and passed through AG-1-formate column (1.0 ml bed volume in a Pasteur pipet which had been washed with 5 ml of 2M Formic acid followed by 10 ml water). The column was washed twice with 1.0 ml water after the entry of the sample and then eluted with 3.0 ml of 0.1M NaCl. The radioactivity present in water and 0.1M NaCl eluates were measured separately using 3a70 scintillation cocktail (Research Products International, Mount Prospect, Ill.) and a Beckman LS6500 scintillation counter. The CPM values were corrected by subtracting the blank CPM. Any radioactivity present in the water eluate (as noticed in the case of some methylglycosides) was added to the corresponding CPM value of 0.1M NaCl eluate. The radioactive products from sulfated and/or sialylated methylglycosides were also measured by the above procedure, only the elution of the AG-1-Formate column was continued further with 3.0 ml of 0.2M NaCl for achieving a complete elution of the radioactive product, a correction being made as before by subtracting the corresponding blank values.
(§4) The radioactive products from benzylglycosides and monosialylated benzylglycosides were measured by hydrophobic chromatography on Sep-Pak C18 cartridge (Waters, Milford, Mass.) and eluting the product with 3.0 ml methanol (30). The radioactivity was determined by liquid scintillation as above.
(§5) For such work, a Biogel P2 column (Fine Mesh; 1.0×116.0 cm) was used with 0.1M pyridine acetate pH5.4 as the eluent at room temperature. The effluent fractions were monitored for radioactivity and the first peak containing radioactivity was collected, lyophilized to dryness, dissolved in 200 μl of water and stored frozen at −20° C. for thin layer chromatography (TLC) and other experimentation.

[2] = biological target: T2, Rat recombinant α2,3(O)ST (Rattus norvegicus, UniProt Q11205); assay: Sialyltransferase assay with cloned α2,3(O)ST; type: biochemical; conditions: for Cloned Sialyltransferase Activities α2,3(O) ST %: Table III, compound 7.5 mM, 100% = 39200 CPM (3-O-MeGalβ1,4GlcNAcβ1,6(Galβ1,3)GalNAcα-O-Bn); for Sialyltransferase activity (%) Cloned α2,3(O)ST: Table I, acceptor 7.5 mM, 100% = 40560 CPM (3-O-MeGalβ1,4GlcNAcβ1,6(Galβ1,3)GalNAcα-O-Bn)
T2 construct: purchased Calbiochem
T2 sequence (Q11205 1-350): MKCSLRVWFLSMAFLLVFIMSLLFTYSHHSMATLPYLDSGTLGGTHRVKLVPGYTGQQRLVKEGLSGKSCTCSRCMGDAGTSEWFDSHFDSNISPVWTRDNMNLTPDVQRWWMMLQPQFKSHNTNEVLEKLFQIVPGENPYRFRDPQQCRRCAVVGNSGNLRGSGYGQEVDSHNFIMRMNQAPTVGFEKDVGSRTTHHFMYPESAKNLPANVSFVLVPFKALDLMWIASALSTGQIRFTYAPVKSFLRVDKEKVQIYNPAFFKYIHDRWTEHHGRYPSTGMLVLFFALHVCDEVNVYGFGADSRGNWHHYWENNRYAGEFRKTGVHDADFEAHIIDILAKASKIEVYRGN
Protocol: as §1, §2, §3, §4, §5

[3] = biological target: T3, Rat recombinant α2,3(N)ST (Rattus norvegicus, UniProt Q02734); assay: Sialyltransferase assay with cloned α2,3(N)ST; type: biochemical; conditions: for Cloned Sialyltransferase Activities α2,3(N) ST %: Table III, compound 7.5 mM, 100% = 38140 CPM (Galβ1,4GlcNAcβ1,6(3-O-MeGalβ1,3)GalNAcα-O-Bn); for Sialyltransferase activity (%) Cloned α2,3(N)ST: Table I, acceptor 7.5 mM, 100% = 29520 CPM (Galβ1,4GlcNAcβ-O—Al)
T3 construct: purchased Calbiochem
T3 sequence (Q02734 29-374 limits assumed): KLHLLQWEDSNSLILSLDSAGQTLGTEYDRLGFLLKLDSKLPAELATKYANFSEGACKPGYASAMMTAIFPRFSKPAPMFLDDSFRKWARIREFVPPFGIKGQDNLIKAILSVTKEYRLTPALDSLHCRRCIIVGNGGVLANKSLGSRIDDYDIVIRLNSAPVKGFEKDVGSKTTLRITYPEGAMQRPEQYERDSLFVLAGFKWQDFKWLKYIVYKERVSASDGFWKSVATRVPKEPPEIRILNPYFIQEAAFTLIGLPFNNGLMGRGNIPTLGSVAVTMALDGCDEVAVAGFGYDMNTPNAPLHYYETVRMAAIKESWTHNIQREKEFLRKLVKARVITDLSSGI
Protocol: as §1, §2, §3, §4, §5

[4] = test system: LNCaP α2,3(O)ST; assay: Sialyltransferase assay with LNCaP cell extract; type: biochemical, human; conditions: Table III; compound 7.5 mM; 100% = 30100 CPM (3-O-MeGalβ1,4GlcNAcβ1,6(Galβ1,3)GalNAcα-O-Bn)
Protocol: The prostate carcinoma cell line, LNCaP, was grown in RPMI 1640 supplemented with 10% fetal bovine serum and antibiotics (penicillin, streptomycin and amphotericin B) under conditions recommended by American Type Culture Collection (Manassas, Va.). The cells were homogenized with 0.1M Tris-Maleate pH6.3 containing 2% Triton X-100 using a Dounce all glass hand-operated homogenizer. The homogenate was centrifuged at 16,000 g for 1 h at 4° C. Protein concentration in supernatant was measured using the BCA assay (Pierce Biotech, Inc., Rockford, Ill.), with BSA as the standard. The supernatant was adjusted to 5 mg protein/ml by adding the necessary amount of extraction buffer and then stored frozen at −20° C. until use. 10 μl aliquot of this extract was used in assays run in duplicate.
as §2, §3, §4, §5

SMILES | Sialyltransferase activity (%) Cloned α2,6(N)ST [1] [%] | Sialyltransferase activity (%) Cloned α2,3(O)ST [2] | Sialyltransferase activity (%) Cloned α2,3(N)ST [3] | other results
CO[C@H]1[C@H](O[C@H]2[C@H](O)[C@@H](CO)O[C@@H](OCc3ccccc3)[C@@H]2NC(C)=O)O[C@H](CO)[C@H](O)[C@@H]1O [2-O-MeGalβ1,3GlcNAcβ-O-Bn] | 0 |  |  | 
CC(=O)N[C@H]1[C@H](OC[C@H]2O[C@H](OCc3ccccc3)[C@H](NC(C)=O)[C@@H](O[C@@H]3O[C@H](CO)[C@H](O)[C@H](O)[C@H]3O)[C@H]2O)O[C@H](CO)[C@@H](O[C@@H]2O[C@H](CO)[C@H](O)[C@H](F)[C@H]2O)[C@@H]1O [3-FGalβ1,4GlcNAcβ1,6(Galβ1,3)GalNAcα-O-Bn] |  |  |  | Cloned Sialyltransferase Activities α2,3(O) ST % [2]: 102.9^12%; Cloned Sialyltransferase Activities α2,3(N) ST % [3]: 7.2%; LNCaPα2,3(O)ST % [4]: 91.5%; Cloned Sialyltransferase Activities α2,6(N)ST % [1]: 11.3%
CO[C@H]1[C@@H](O)[C@@H](CO)O[C@@H](O[C@H]2[C@H](O)[C@@H](NC(C)=O)C(O)O[C@@H]2CO)[C@@H]1O (stereo partly drawn) [3-O-MeGalβ1,4GlcNAc] | 8.7 | 3.6% | 1.4% | 
CC(=O)N[C@H]1[C@H](OC[C@H]2O[C@H](OCc3ccccc3)[C@H](NC(C)=O)[C@@H](O[C@@H]3O[C@H](CO)[C@H](O)[C@H](O)[C@H]3O)[C@H]2O)O[C@H](CO)[C@@H](O[C@@H]2O[C@H](CO)[C@H](F)[C@H](O)[C@H]2O)[C@@H]1O [4-FGalβ1,4GlcNAcβ1,6(Galβ1,3)GalNAcα-O-Bn] |  |  |  | Cloned Sialyltransferase Activities α2,3(O) ST % [2]: 102.1%; Cloned Sialyltransferase Activities α2,3(N) ST % [3]: 7.9%; Cloned Sialyltransferase Activities α2,6(N)ST % [1]: 2.7%
CO[C@H]1O[C@H](CO[C@@H]2O[C@H](COS(=O)(=O)O)[C@@H](O[C@@H]3O[C@H](CO)[C@H](O)[C@H](O)[C@H]3O)[C@H](O[C@@H]3O[C@@H](C)[C@@H](O)[C@@H](O)[C@@H]3O)[C@H]2NC(C)=O)[C@H](O)[C@H](O[C@@H]2O[C@H](CO)[C@H](O)[C@H](O[C@]3(C(=O)O)C[C@H](O)[C@@H](NC(C)=O)[C@H]([C@H](O)[C@H](O)CO)O3)[C@H]2O)[C@H]1NC(C)=O [Galβ1,4(6-O-Sulfo)(Fucα1,3)GlcNAcβ1,6(NeuAcα2,3Galβ1,3)GalNAcα-O-Me] | 0 |  | 1.7% | 
CO[C@H]1O[C@H](CO[C@@H]2O[C@H](COS(=O)(=O)O)[C@@H](O[C@@H]3O[C@H](CO)[C@H](O)[C@H](O)[C@H]3O)[C@H](O)[C@H]2NC(C)=O)[C@H](O)[C@H](O[C@@H]2O[C@H](CO)[C@H](O)[C@H](O[C@]3(C(=O)O)C[C@H](O)[C@@H](NC(C)=O)[C@H]([C@H](O)[C@H](O)CO)O3)[C@H]2O)[C@H]1NC(C)=O [Galβ1,4(6-O-Sulfo)GlcNAcβ1,6(NeuAcα2,3Galβ1,3)GalNAcα-O-Me] | 0.9 |  | 50.8% and 50.8^22% | Sialyltransferase activity (%) Cloned α2,3(N)ST ([3]; listed as Galβ1,4(6-O-Sulfo)GlcNAcβ1,6(NeuAcα2,3Galβ1,3)GalNAcα-): 50.8%
CO[C@H]1O[C@H](CO[C@@H]2O[C@H](CO)[C@@H](O[C@@H]3O[C@H](CO)[C@H](O)[C@H](O)[C@H]3O)[C@H](O[C@@H]3O[C@@H](C)[C@@H](O)[C@@H](O)[C@@H]3O)[C@H]2NC(C)=O)[C@H](O)[C@H](O[C@@H]2O[C@H](CO)[C@H](O)[C@H](O)[C@H]2O)[C@H]1NC(C)=O [Galβ1,4(Fucα1,3)GlcNAcβ1,6(Galβ1,3)GalNAcα-O-Me] | 7.1 | 133.4% | 19.0% | 
CC(=O)N[C@H]1[C@H](OC[C@H]2O[C@H](OCc3ccccc3)[C@H](NC(C)=O)[C@@H](O[C@@H]3O[C@H](CO)[C@H](O)[C@H](O[C@@]4(C(=O)O)C[C@H](O)[C@@H](NC(C)=O)[C@H]([C@H](O)[C@H](O)CO)O4)[C@H]3O)[C@H]2O)O[C@H](CO)[C@@H](O[C@@H]2O[C@H](CO)[C@H](O)[C@H](O)[C@H]2O)[C@@H]1O[C@@H]1O[C@@H](C)[C@@H](O)[C@@H](O)[C@@H]1O [Galβ1,4(Fucα1,3)GlcNAcβ1,6(NeuAcα2,3Galβ1,3)GalNAcα-O-Bn] |  |  | 27.1% | 
CC(=O)N[C@H]1[C@H](OC[C@H]2O[C@H](OCc3ccccc3)[C@H](NC(C)=O)[C@@H](O[C@@H]3O[C@H](CO)[C@H](O)[C@H](O)[C@H]3O)[C@H]2O)O[C@H](CO)[C@@H](O[C@@H]2O[C@H](CO)[C@H](O)[C@H](O)[C@H]2O)[C@@H]1O [Galβ1,4GlcNAcβ1,6(Galβ1,3)GalNAcα-O-Bn] | 93.3 | 94.4^4% | 100.7% | α2,6(N)ST activity at varying acceptor concentration (FIG. 3A) ([1]; lowest concentration tested, 0.15 mM): considerable activity
